Earlier results in patent US20150174190A1, “Formulation Against General, Physical, And/Or Mental Fatigue” (priority 2013, published 2015).

Tested on: patients that suffered from fatigue

CC(C)[C@H](N)C(=O)OCC(CO)OCn1cnc2c(=O)nc(N)[nH]c21 (stereo partly shown) [Valganciclovir]
Effect on physical and cognitive performance: improved physical and cognitive performance
